Experimental data from patent US7166622B2, “Substituted phenylsulfonamide inhibitors of beta amyloid production” (Wyeth, priority 2002, dated 2007).
Like-named read-outs stand apart in the source and are kept apart here.

What was measured:
beta amyloid production = test: Repressor Release Assay (RRA); format: cell-based; details: for fold induction at 20 µg/mL / APPI Fold Increase / APPI % of Example #98: Conc 20 μg/ml; for APPI % of Example #98: relative to Example 98
Protocol: CHO-K1 cells were cultured in whole DMEM media (DMEM—High Glucose with 10% fetal bovine serum, 1% Non-essential Amino Acids, and 1% Penicillin-Streptomycin) at 37° C. with 5% CO2. Two million cells were plated into 10-cm dishes 24 hrs prior to transfection.
Transient transfections were completed as recommended by Gibco BRL using their Lipofectamine Plus system. First, 6 μg of pRSVO-luc and 6 μg of APP-lacI construct DNA were added to 460 μL Opti-Mem transfection media and incubated with 30 μL Plus reagent for 15 minutes. Then, a lipid mixture of 40 μL Lipofectamine reagent and 460 μL Opti-Mem transfection media was incubated with the DNA-Plus reagent mixture for 15 minutes. During the DNA-lipid incubation, the CHO-K1 cells were washed once and covered in 5.0 mL DMEM media without Penicillin-Streptomycin. The DNA-lipid preparation was then layered onto these cells and incubated at 37° C. overnight.
[…] transfected cells per well (100 μL total volume) were plated into sterile, opaque Packard 96-well Culture-Plates in clear DMEM whole media (DMEM—without phenol red) and incubated at 37° C. with 5% CO2 for 3-5 hours.
Compounds were diluted using two different protocols; one protocol was used for compounds supplied neat (weighed powder in vial) and the other protocol was used for compounds supplied in solution (20 mM in DMSO in 96-well plates). For both protocols, 25 mM Hepes and 25 mM Hepes/1% DMSO were prepared fresh to be used as diluent. The Hepes/DMSO was used as the diluent control on all experimental plates.
The following table depicts the steps for compound dilution (please note that the last step was the addition of compound to cells/media in tissue culture plate).
Because some compounds were present in 96-well format at 20 mM, the following represents the protocol for their dilution (note that an average molecular weight of these compounds was used to calculate these dilutions and as above, the last step was the addition of compound to cells/media in tissue culture plate).
Once the compounds were diluted, they were applied in duplicate on cells in tissue culture plates (prepared above). Cells were incubated with compound at 37° C. with 5% CO2 for an additional 36-48 hours.
Luciferase assays (LucLite reagent, Packard) were performed and were read on a Packard TopCount instrument. Media was removed from each 96-well plate and replaced with 100 μL PBS per well (with Mg^2+ and Ca^2+). An equal volume (100 μL) of the LucLite lysis/substrate buffer was added to each well and the plates were sealed and mixed in the dark on a rotary shaker for 15-30 minutes at room temperature. Luciferase readings were then taken on the TopCount instrument. Measurements were expressed as relative light units (RLU) and are calculated and analyzed in MS Excel as follows: […]

CHO-K1 cells = test: Toxicity in RRA (loss of luciferase signal); details: toxicity = loss of signal (<0.75 fold increase)
Protocol: The beta amyloid inhibitory activity of the compounds of the present invention was determined using the Repressor Release Assay (RRA).
“Fold Increase” refers to the amount of luciferase activity (measured in relative light units) over diluent control. “SEM” refers to the standard error of the mean for fold increase.

[1] = luciferase activity over diluent control, read-out: APPI Fold Increase
[2] = luciferase activity over diluent control
[3] = luciferase activity (RLU) over diluent control, read-out: APPI Fold Increase
[4] = Conc 20 μg/ml, 1=non-toxic, 0=toxic

SMILES: CC[C@@H](C)[C@@H](CO)NS(=O)(=O)c1ccc(Cl)cc1 [Example 39, 4-chloro-N-[(1S,2R)-1-(hydroxymethyl)-2-methylbutyl]benzenesulfonamide]
- fold induction at 3 µg/mL (beta amyloid production; Conc 3 μg/ml, luciferase activity over diluent control, read-out: APPI Fold Increase): 1.56
- fold induction at 10 µg/mL (beta amyloid production; Conc 10 μg/ml, luciferase activity over diluent control, read-out: APPI Fold Increase): 2.47
- fold induction at 20 µg/mL (beta amyloid production; [1]): 5.5
- (%)APPI Toxicity (CHO-K1 cells; Conc 3 μg/ml): 1 (1=non-toxic)
- (%)APPI Toxicity (CHO-K1 cells; Conc 10 μg/ml): 1 (1=non-toxic)
- (%)APPI Toxicity (CHO-K1 cells; Conc 20 μg/ml): 1 (1=non-toxic)

SMILES: C=CCN([C@H](CO)[C@@H](C)CC)S(=O)(=O)c1ccc(Cl)cc1 [Example 40, N-Allyl-4-chloro-N-[(1S,2 S)-1-(hydroxymethyl)-2-methylbutyl]benzenesulfonamide]
- fold induction at 20 µg/mL (beta amyloid production; [1]): 3.4
- (%)APPI Toxicity (CHO-K1 cells; Conc 20 μg/ml): 1 (1=non-toxic)

SMILES: CC[C@H](C)[C@@H](CO)N(Cc1ccc(-c2ccccc2)cc1)S(=O)(=O)c1ccc(Cl)cc1 [Example 41, N-([1,1′-biphenyl]-4-ylmethyl)-4-chloro-N-[(1S,2S)-1-(hydroxymethyl)-2-methylbutyl]benzenesulfonamide]
- fold induction at 20 µg/mL (beta amyloid production; [1]): 4.9
- (%)APPI Toxicity (CHO-K1 cells; Conc 20 μg/ml): 1 (1=non-toxic)

SMILES: CC[C@H](C)[C@@H](CO)N(Cc1ccc(Cl)cc1)S(=O)(=O)c1ccc(Cl)cc1 [Example 43, 4-chloro-N-(4-chlorobenzyl)-N-[(1S,2S)-1-(hydroxymethyl)-2-methylbutyl]benzenesulfonamide]
- fold induction at 20 µg/mL (beta amyloid production; [1]): 5.1
- (%)APPI Toxicity (CHO-K1 cells; Conc 20 μg/ml): 1 (1=non-toxic)

SMILES: CC[C@H](C)[C@@H](CO)N(CC1CCC1)S(=O)(=O)c1ccc(Cl)cc1 [Example 44, 4-chloro-N-(cyclobutylmethyl)-N-[(1S,2S)-1-(hydroxymethyl)-2-methylbutyl] benzenesulfonamide]
- APPI Fold Increase (beta amyloid production; [2]): 2.6 fold
- APPI % of Example #98 (beta amyloid production): 95.7%
- (%)APPI Toxicity (CHO-K1 cells; Conc 20 μg/ml): 1 (1=non-toxic)

SMILES: CC[C@H](C)[C@@H](CO)N(Cc1ccc(OC)c(OC)c1)S(=O)(=O)c1ccc(Cl)cc1 [Example 45, 4-chloro-N-(3,4-dimethoxybenzyl)-N-[(1S,2S)-1-(hydroxymethyl)-2-methylbutyl]benzenesulfonamide]
- fold induction at 20 µg/mL (beta amyloid production; [1]): 1.5
- (%)APPI Toxicity (CHO-K1 cells; Conc 20 μg/ml): 1 (1=non-toxic)

SMILES: CC[C@H](C)[C@@H](CO)N(Cc1ccco1)S(=O)(=O)c1ccc(Cl)cc1 [Example 46, 4-chloro-N-(2-furylmethyl)-N-[(1S,2S)-1-(hydroxymethyl)-2-methylbutyl]benzenesulfonamide]
- fold induction at 20 µg/mL (beta amyloid production; [1]): 1.8
- (%)APPI Toxicity (CHO-K1 cells; Conc 20 μg/ml): 1 (1=non-toxic)

SMILES: CC[C@H](C)[C@@H](CO)N(CCSC)S(=O)(=O)c1ccc(Cl)cc1 [Example 47, 4-chloro-N-[(1S,2S)-1-(hydroxymethyl)-2-methylbutyl]-N-[2-(methylthio)ethyl]benzenesulfonamide]
- fold induction at 20 µg/mL (beta amyloid production; [1]): 2.4
- (%)APPI Toxicity (CHO-K1 cells; Conc 20 μg/ml): 1 (1=non-toxic)

SMILES: CC[C@H](C)[C@@H](CO)N(CC#Cc1ccccc1)S(=O)(=O)c1ccc(Cl)cc1 [Example 48, 4-chloro-N-[(1S,2S)-1-(hydroxymethyl)-2-methylbutyl]-N-(3-phenylprop-2-ynyl) benzenesulfonamide]
- APPI Fold Increase (beta amyloid production; [2]): 3.1 fold
- APPI % of Example #98 (beta amyloid production): 116.6%
- (%)APPI Toxicity (CHO-K1 cells; Conc 20 μg/ml): 1 (1=non-toxic)

SMILES: COc1ccc([C@@H](C)[C@@H](CO)NS(=O)(=O)c2ccc(Cl)cc2)cc1 [Example 49, 4-Chloro-N-[(1S,2R)-1-(hydroxymethyl)-2-(4-methoxyphenyl)propyl]benzenesulfonamide]
- fold induction at 20 µg/mL (beta amyloid production; [1]): 2.5
- (%)APPI Toxicity (CHO-K1 cells; Conc 20 μg/ml): 1 (1=non-toxic)

SMILES: CCCCCC[C@@H](C)[C@@H](CO)NS(=O)(=O)c1ccc(Cl)cc1 [Example 50, 4-chloro-N-[(1S,2R)-1-(hydroxymethyl)-2-methyloctyl]benzenesulfonamide]
- fold induction at 20 µg/mL (beta amyloid production; [1]): 2.5
- (%)APPI Toxicity (CHO-K1 cells; Conc 20 μg/ml): 1 (1=non-toxic)

SMILES: C[C@H](c1ccccc1)[C@@H](CO)NS(=O)(=O)c1ccc(Cl)cc1 [Example 51, 4-chloro-N-[(1S,2R)-1-(hydroxymethyl)-2-phenylpropyl]benzenesulfonamide]
- fold induction at 20 µg/mL (beta amyloid production; [3]): 1.6
- (%)APPI Toxicity (CHO-K1 cells; [4]): 1 (1=non-toxic)

SMILES: CCC(CC)[C@@H](CO)NS(=O)(=O)c1ccc(Cl)cc1 [Example 52, 4-chloro-N-[(1S)-2-ethyl-1-(hydroxymethyl)butyl]benzenesulfonamide]
- fold induction at 20 µg/mL (beta amyloid production; [3]): 6.2
- (%)APPI Toxicity (CHO-K1 cells; [4]): 1 (1=non-toxic)

SMILES: CC[C@H](CC(C)C)[C@@H](CO)NS(=O)(=O)c1ccc(Cl)cc1 [Example 53, 4-chloro-N-[(1S,2R)-2-ethyl-1-(hydroxymethyl)-4-methylpentyl]benzenesulfonamide]
- fold induction at 20 µg/mL (beta amyloid production; [3]): 5.2
- (%)APPI Toxicity (CHO-K1 cells; [4]): 1 (1=non-toxic)

SMILES: CCC[C@H](C)[C@@H](CO)NS(=O)(=O)c1ccc(Cl)cc1 [Example 54, 4-chloro-N-[(1S,2S)-1-(hydroxymethyl)-2-methylpentyl]benzenesulfonamide]
- fold induction at 20 µg/mL (beta amyloid production; [3]): 5
- (%)APPI Toxicity (CHO-K1 cells; [4]): 1 (1=non-toxic)

SMILES: CCC[C@H](CC)[C@@H](CO)NS(=O)(=O)c1ccc(Cl)cc1 [Example 55, 4-chloro-N-[(1S,2S)-2-ethyl-1-(hydroxymethyl)pentyl]benzenesulfonamide]
- fold induction at 20 µg/mL (beta amyloid production; [3]): 5.6
- (%)APPI Toxicity (CHO-K1 cells; [4]): 1 (1=non-toxic)

SMILES: CCC[C@H](CC(C)C)[C@@H](CO)NS(=O)(=O)c1ccc(Cl)cc1 [Example 56, 4-chloro-N-[(1S,2R)-1-(hydroxymethyl)-4-methyl-2-propylpentyl]benzenesulfonamide]
- fold induction at 20 µg/mL (beta amyloid production; [3]): 3.6
- (%)APPI Toxicity (CHO-K1 cells; [4]): 1 (1=non-toxic)

SMILES: CCC[C@H](c1ccc(OC)cc1)[C@@H](CO)NS(=O)(=O)c1ccc(Cl)cc1 [Example 57, 4-chloro-N-[(1S,2R)-1-(hydroxymethyl)-2-(4-methoxyphenyl)pentyl]benzenesulfonamide]
- fold induction at 20 µg/mL (beta amyloid production; [3]): 1.7
- (%)APPI Toxicity (CHO-K1 cells; [4]): 1 (1=non-toxic)

SMILES: CCCCCC[C@@H](CCC)[C@@H](CO)NS(=O)(=O)c1ccc(Cl)cc1 [Example 58, 4-chloro-N-[(1S,2R)-1-(hydroxymethyl)-2-propyloctyl]benzenesulfonamide]
- fold induction at 20 µg/mL (beta amyloid production; [3]): 2.6
- (%)APPI Toxicity (CHO-K1 cells; [4]): 1 (1=non-toxic)

SMILES: CCC[C@H](c1ccccc1)[C@@H](CO)NS(=O)(=O)c1ccc(Cl)cc1 [Example 59, 4-chloro-N-[(1S,2R)-1-(hydroxymethyl)-2-phenylpentyl]benzenesulfonamide]
- fold induction at 20 µg/mL (beta amyloid production; [3]): 3.2
- (%)APPI Toxicity (CHO-K1 cells; [4]): 1 (1=non-toxic)

SMILES: CCCCC[C@H](C)[C@@H](CO)NS(=O)(=O)c1ccc(Cl)cc1 [Example 60, 4-chloro-N-[(1S,2S)-1-(hydroxymethyl)-2-methylheptyl]benzenesulfonamide]
- fold induction at 20 µg/mL (beta amyloid production; [3]): 4.6
- (%)APPI Toxicity (CHO-K1 cells; [4]): 1 (1=non-toxic)

SMILES: CCCCC[C@H](CC)[C@@H](CO)NS(=O)(=O)c1ccc(Cl)cc1 [Example 61, 4-chloro-N-[(1S,2S)-2-ethyl-1-(hydroxymethyl)-heptyl]benzenesulfonamide]
- fold induction at 20 µg/mL (beta amyloid production; [3]): 6.5
- (%)APPI Toxicity (CHO-K1 cells; [4]): 1 (1=non-toxic)

SMILES: CCCCCC[C@@H](CCCCC)[C@@H](CO)NS(=O)(=O)c1ccc(Cl)cc1 [Example 62, 4-chloro-N-[(1S,2R)-1-(hydroxymethyl)-2-pentyloctyl]benzenesulfonamide]
- fold induction at 20 µg/mL (beta amyloid production; [3]): 1.8
- (%)APPI Toxicity (CHO-K1 cells; [4]): 1 (1=non-toxic)

SMILES: C[C@@H](c1ccccc1)[C@@H](CO)NS(=O)(=O)c1ccc(Cl)cc1 [Example 63, 4-chloro-N-[(1S,2S)-1-(hydroxymethyl)-2-phenylpropyl]benzenesulfonamide]
- fold induction at 20 µg/mL (beta amyloid production; [3]): 2
- (%)APPI Toxicity (CHO-K1 cells; [4]): 1 (1=non-toxic)
